Test results from US20090012054A1, “Cephem Compounds and Use as Antimicrobial Agents” (priority 2006, published 2009).
Values after ≈ are worked out from the molar mass of the structure shown. Like-named read-outs stand apart in the source and are kept apart here.

What was measured:
Test in all cases: In vitro antibacterial activity (MIC), two-fold agar-plate dilution method
Assay type in all cases: cell-based
[1] = tested on: Pseudomonas aeruginosa 22027; settings: Pseudomonas aeruginosa 22027, metallo β-lactamase producing strain, HI-agar, 37° C. for 20 hours
Protocol: (§1) Now in order to show the utility of the object compound [I], the test data on MIC (minimal inhibitory concentration) of a representative compound of this invention are shown in the following.
(§2) In vitro antibacterial activity was determined by the two-fold agar-plate dilution method as described below.
(§3) One loopful of an overnight culture of each test strain in Trypticase-soy broth (10^6 viable cells per ml) was streaked on heart infusion agar (HI-agar) containing graded concentrations of representative test compound, and the minimal inhibitory concentration (MIC) was expressed in μg/ml after incubation at 37° C. for 20 hours.

[2] = tested on: Pseudomonas aeruginosa 19136; settings: Pseudomonas aeruginosa 19136, metallo β-lactamase producing strain, HI-agar, 37° C. for 20 hours
Protocol: as §1, §2, §3

[3] = tested on: Pseudomonas aeruginosa FP 1380; settings: Pseudomonas aeruginosa FP 1380, AmpC β-lactamase overproduced strain, HI-agar, 37° C. for 20 hours
Protocol: as §1, §2, §3

Compound	MIC [1] [µg/mL]	MIC [2] [µg/mL]	MIC [3] [µg/mL]	MIC ([1]; read-out: MIC) [µg/mL]	MIC ([2]; read-out: MIC) [µg/mL]	MIC ([3]; FP1380, read-out: MIC) [µg/mL]
CC(C)(O/N=C(\C(=O)N[C@@H]1C(=O)N2C(C(=O)O)=C(C[n+]3cc(N(CCN)C(=N)N)c4n3CCCN4)CS[C@H]12)c1nsc(N)n1)C(=O)O.O=S(=O)([O-])O [Compound (B), 7β-[(Z)-2-(5-amino-1,2,4-thiadiazol-3-yl)-2-(1-carboxy-1-methylethoxyimino)acetamido]-3-{3-[1-(2-aminoethyl)guanidino]-4,5,6,7-tetrahydro-1-(pyrazolo[1,5-a]pyrimidinio)}methyl-3-cephem-4-carboxylate sulfate]	8	2	0.5			
7β-[(Z)-2-(5-amino-1,2,4-thiadiazol-3-yl)-2-(1-carboxy-1-methylethoxyimino)acetamido]-3-{3-[1-(3-aminopropyl)guanidino]-2,3-dihydro-5-(1H-imidazo[1,2-b]pyrazolio)}methyl-3-cephem-4-carboxylate sulfate [Compound (A)]	8	2	0.5			
C[C@H]1[C@H](NC(=O)/C(=N\OC(C)(C)C(=O)O)c2csc(N)n2)C(=O)N1S(=O)(=O)O [Aztreonam, reference compound]				32 (≈ 73.5 µM)	4 (≈ 9.19 µM)	64 (≈ 147 µM)
